Reference: ChEMBL document CHEMBL5053509, “Development of a Selective Dual Discoidin Domain Receptor (DDR)/p38 Kinase Chemical Probe” (J Med Chem, 2021)

Test: Metabolic stability in human liver microsomes assessed as parent compound remaining after 240 mins incubation by LC-MS/MS analysis
Format: ADME, Microsome
Conditions: read-out: Stability

CS(=O)(=O)N1CCC[C@H](NC(=O)[C@H](CCC2CCCCC2)NC(=O)c2ccc(CNC(=O)c3cnn(-c4ccccc4)c3N)cc2)C1 gave a remaining at 4 h of 44%.
Compound CS(=O)(=O)N1CCCC(NC(=O)[C@H](CCC2CCCCC2)NC(=O)c2ccc(CNC(=O)c3cnc4ccccn34)cc2)C1 (mixture of isomers) [SR-302] has a remaining at 4 h of 44%.
